Experiments:
[1] = Solubility of rotigotine in matrix components; format: physicochemical
[2] = as described in WO 2009/068520; cited from earlier work

Row | Solubility in a crystallization inhibitor such as polyvinylpyrrolidone [1] | Solubility in silicone adhesives [1] | Structure (SMILES) | Thermodynamic stability of the polymorphic form [2]
1 | good soluble | very poorly soluble | CCCN(CCc1cccs1)[C@H]1CCc2c(O)cccc2C1 [Rotigotine] | –
2 | – | – | CCCN(CCc1cccs1)[C@H]1CCc2c(O)cccc2C1 [polymorphic form II] | thermodynamically more stable than the polymorphic form I
